Measured values reported in PMC9841532, “Exploring the Effect of Halogenation in a Series of Potent and Selective A2B Adenosine Receptor Antagonists” (Journal of Medicinal Chemistry, 2022).

What follows are compounds tested against T1, hA1AR (Homo sapiens, UniProt P30542) (assay: Radioligand binding competition, [3H]DPCPX, membranes from CHO-A1 cells). Conditions: 1 μM, [3H]DPCPX, human CHO cells, n = 2.
T1 sequence (P30542 1-326): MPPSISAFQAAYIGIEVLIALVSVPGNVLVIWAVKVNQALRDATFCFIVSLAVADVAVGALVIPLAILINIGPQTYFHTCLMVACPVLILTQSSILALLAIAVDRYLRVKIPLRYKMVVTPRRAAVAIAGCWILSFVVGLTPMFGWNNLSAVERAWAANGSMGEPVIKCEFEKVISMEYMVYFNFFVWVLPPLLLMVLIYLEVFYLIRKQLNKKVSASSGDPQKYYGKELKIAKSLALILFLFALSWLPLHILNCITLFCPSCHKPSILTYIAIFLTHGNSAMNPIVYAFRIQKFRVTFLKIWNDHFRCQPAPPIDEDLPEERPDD
Procedure: (§1) All ligands reported in Tables 1–5 were obtained and tested as racemic mixtures. The whole set was evaluated in silico with a combination of a Rdkit[37] PAINS filter and Instant JChem from Chemaxon (https://www.chemaxon.com), to rule out the possibility that these ligands can be promiscuous pan-assay interference compounds (PAINS) and to assess their bioavailability, respectively. […] The stereoisomers of selected compounds were obtained by chiral resolution and tested at the four human AR subtypes in their enantiopure forms (Table 6).
(§2) A brief description is given below. […] Non-specific binding was determined in the presence of 10 μM R-PIA. The reaction mixture was incubated at 25 °C for 60 min. […] The reaction mixture was incubated at 25 °C for 30 min. […] The reaction mixture was incubated at 25 °C for 30 min. […] Non-specific binding was determined in the presence of 100 μM R-PIA. […] After the incubation time, membranes were washed and filtered and radioactivity was detected in a MicroBeta TriLux reader (PerkinElmer).

% at 1 μM hA1 (percentage displacement of specific binding) [%]	Compound
2	CC1=C(C(=O)OC(C)C)C(c2ccoc2)n2c(nc3cc(Br)ccc32)N1 (stereo not shown) [16t]
1	CC1=C(C(=O)OC(C)C)C(c2cccs2)n2c(nc3cc(Br)ccc32)N1 (stereo not shown) [16v]
2	CC1=C(C(=O)OC(C)C)C(c2ccsc2)n2c(nc3cc(Br)ccc32)N1 (stereo not shown) [16x]
34	CC1=C(C(=O)OC(C)C)C(c2cocn2)n2c(nc3ccc(F)cc32)N1 (stereo not shown) [17b]
25	CCOC(=O)C1=C(C)Nc2nc3cc(F)ccc3n2C1c1cocn1 (stereo not shown) [18a]
23	CC1=C(C(=O)OC(C)C)C(c2cocn2)n2c(nc3cc(Cl)ccc32)N1 (stereo not shown) [18d]
15	CC1=C(C(=O)OC(C)C)[C@H](c2ccco2)n2c(nc3cc(F)ccc32)N1 [(R)-16b]

The next lines start with the compound.

Compound	% at 1 μM hA1 (percentage displacement of specific binding) [%]
CCOC(=O)C1=C(C)Nc2nc3cc(Br)ccc3n2C1c1cccs1 (stereo not shown) [16u]	6
CCOC(=O)C1=C(C)Nc2nc3cc(Br)ccc3n2C1c1ccsc1 (stereo not shown) [16w]	1
CCOC(=O)C1=C(C)Nc2nc3ccc(F)cc3n2C1c1cocn1 (stereo not shown) [17a]	43
CC1=C(C(=O)OC(C)C)C(c2cocn2)n2c(nc3ccc(Cl)cc32)N1 (stereo not shown) [17d]	27
CCOC(=O)C1=C(C)Nc2nc3cc(Cl)ccc3n2C1c1cocn1 (stereo not shown) [18c]	30

Same assay, conditions: displacement of specific [3H]DPCPX binding in human CHO cells, n = 3; read-out: Ki hA1

Ki [nM]	Compound
227	CCOC(=O)C1=C(C)Nc2nc3ccc(Cl)cc3n2C1c1cocn1 (stereo not shown) [17c]

These compounds were tested against T2, hA2AAR (Homo sapiens, UniProt P29274) (assay: Radioligand binding competition, [3H]ZM241385, membranes from HeLa-A2A cells). Conditions: 1 μM, [3H]ZM241385, human HeLa cells, n = 2.
T2 construct: expressed in transfected cells; host or cells: HeLa (HeLa-A2A) cell membranes
T2 sequence (P29274 whole entry): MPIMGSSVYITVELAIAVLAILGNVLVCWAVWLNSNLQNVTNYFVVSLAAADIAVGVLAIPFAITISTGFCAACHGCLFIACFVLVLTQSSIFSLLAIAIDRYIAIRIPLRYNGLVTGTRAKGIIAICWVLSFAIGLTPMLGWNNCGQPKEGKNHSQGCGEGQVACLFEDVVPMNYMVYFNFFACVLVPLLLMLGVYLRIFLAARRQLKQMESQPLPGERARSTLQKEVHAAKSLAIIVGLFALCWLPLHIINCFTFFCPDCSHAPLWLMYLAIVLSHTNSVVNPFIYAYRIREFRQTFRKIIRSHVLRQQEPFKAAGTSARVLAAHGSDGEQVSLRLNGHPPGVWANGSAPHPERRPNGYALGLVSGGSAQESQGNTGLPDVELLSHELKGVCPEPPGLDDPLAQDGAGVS
Procedure: as §1, §2

% at 1 μM hA2A (percentage displacement of specific binding) [%]	Compound
1	CC1=C(C(=O)OC(C)C)C(c2cccs2)n2c(nc3cc(Br)ccc32)N1 (stereo not shown) [16v]
1	CC1=C(C(=O)OC(C)C)C(c2ccsc2)n2c(nc3cc(Br)ccc32)N1 (stereo not shown) [16x]
19	CC1=C(C(=O)OC(C)C)C(c2cocn2)n2c(nc3ccc(F)cc32)N1 (stereo not shown) [17b]
16	CCOC(=O)C1=C(C)Nc2nc3cc(F)ccc3n2C1c1cocn1 (stereo not shown) [18a]
35	CC1=C(C(=O)OC(C)C)C(c2cocn2)n2c(nc3cc(Cl)ccc32)N1 (stereo not shown) [18d]
5	CC1=C(C(=O)OC(C)C)[C@H](c2ccco2)n2c(nc3cc(F)ccc32)N1 [(R)-16b]

Continued, compound first:

Compound	% at 1 μM hA2A (percentage displacement of specific binding) [%]
CCOC(=O)C1=C(C)Nc2nc3cc(Br)ccc3n2C1c1cccs1 (stereo not shown) [16u]	3
CCOC(=O)C1=C(C)Nc2nc3cc(Br)ccc3n2C1c1ccsc1 (stereo not shown) [16w]	9
CCOC(=O)C1=C(C)Nc2nc3ccc(F)cc3n2C1c1cocn1 (stereo not shown) [17a]	4
CCOC(=O)C1=C(C)Nc2nc3ccc(Cl)cc3n2C1c1cocn1 (stereo not shown) [17c]	14
CC1=C(C(=O)OC(C)C)C(c2cocn2)n2c(nc3ccc(Cl)cc32)N1 (stereo not shown) [17d]	1
CCOC(=O)C1=C(C)Nc2nc3cc(Cl)ccc3n2C1c1cocn1 (stereo not shown) [18c]	13

Same assay, conditions: displacement of specific [3H]ZM241385 binding in human HeLa cells, n = 3; read-out: Ki hA2A

Ki [nM]	Compound
509 ± 6	CC1=C(C(=O)OC(C)C)C(c2ccoc2)n2c(nc3cc(Br)ccc32)N1 (stereo not shown) [16t]

What follows are compounds tested against T3, hA3AR (Homo sapiens, UniProt P0DMS8) (assay: Radioligand binding competition, [3H]NECA, membranes from HeLa-A3 cells). Conditions: 1 μM, [3H]NECA, human HeLa cells, n = 2.
T3 construct: expressed in transfected cells; host or cells: HeLa (HeLa-A3) cell membranes
T3 sequence (P0DMS8 1-318): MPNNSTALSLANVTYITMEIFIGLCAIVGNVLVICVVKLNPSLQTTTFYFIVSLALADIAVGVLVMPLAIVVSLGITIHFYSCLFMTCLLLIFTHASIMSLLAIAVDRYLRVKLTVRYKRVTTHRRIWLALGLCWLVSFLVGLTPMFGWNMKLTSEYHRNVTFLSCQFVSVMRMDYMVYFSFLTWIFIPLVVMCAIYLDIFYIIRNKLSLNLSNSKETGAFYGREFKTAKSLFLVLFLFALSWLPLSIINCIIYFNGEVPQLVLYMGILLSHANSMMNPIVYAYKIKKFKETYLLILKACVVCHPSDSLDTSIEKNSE
Procedure: as §1, §2

% at 1 μM hA3 (percentage displacement of specific binding) [%]	Compound
2	CC1=C(C(=O)OC(C)C)C(c2ccoc2)n2c(nc3cc(Br)ccc32)N1 (stereo not shown) [16t]
1	CC1=C(C(=O)OC(C)C)C(c2cccs2)n2c(nc3cc(Br)ccc32)N1 (stereo not shown) [16v]
4	CC1=C(C(=O)OC(C)C)C(c2ccsc2)n2c(nc3cc(Br)ccc32)N1 (stereo not shown) [16x]
22	CC1=C(C(=O)OC(C)C)C(c2cocn2)n2c(nc3ccc(F)cc32)N1 (stereo not shown) [17b]
16	CCOC(=O)C1=C(C)Nc2nc3cc(F)ccc3n2C1c1cocn1 (stereo not shown) [18a]
23	CC1=C(C(=O)OC(C)C)C(c2cocn2)n2c(nc3cc(Cl)ccc32)N1 (stereo not shown) [18d]
19	CC1=C(C(=O)OC(C)C)[C@H](c2ccco2)n2c(nc3cc(F)ccc32)N1 [(R)-16b]

More lines, now with the values behind:

Compound	% at 1 μM hA3 (percentage displacement of specific binding) [%]
CCOC(=O)C1=C(C)Nc2nc3cc(Br)ccc3n2C1c1cccs1 (stereo not shown) [16u]	6
CCOC(=O)C1=C(C)Nc2nc3cc(Br)ccc3n2C1c1ccsc1 (stereo not shown) [16w]	1
CCOC(=O)C1=C(C)Nc2nc3ccc(F)cc3n2C1c1cocn1 (stereo not shown) [17a]	26
CCOC(=O)C1=C(C)Nc2nc3ccc(Cl)cc3n2C1c1cocn1 (stereo not shown) [17c]	11
CC1=C(C(=O)OC(C)C)C(c2cocn2)n2c(nc3ccc(Cl)cc32)N1 (stereo not shown) [17d]	20
CCOC(=O)C1=C(C)Nc2nc3cc(Cl)ccc3n2C1c1cocn1 (stereo not shown) [18c]	15

The compounds below were run against T4, hA2BAR (Homo sapiens, UniProt P29275) (assay: Radioligand binding competition, [3H]DPCPX, membranes from HEK-293-A2B cells). Conditions: 1 μM, [3H]DPCPX, human HEK-293 cells, n = 2.
T4 construct: host or cells: HEK-293 (HEK-293-A2B) cell membranes
T4 sequence (P29275 1-332): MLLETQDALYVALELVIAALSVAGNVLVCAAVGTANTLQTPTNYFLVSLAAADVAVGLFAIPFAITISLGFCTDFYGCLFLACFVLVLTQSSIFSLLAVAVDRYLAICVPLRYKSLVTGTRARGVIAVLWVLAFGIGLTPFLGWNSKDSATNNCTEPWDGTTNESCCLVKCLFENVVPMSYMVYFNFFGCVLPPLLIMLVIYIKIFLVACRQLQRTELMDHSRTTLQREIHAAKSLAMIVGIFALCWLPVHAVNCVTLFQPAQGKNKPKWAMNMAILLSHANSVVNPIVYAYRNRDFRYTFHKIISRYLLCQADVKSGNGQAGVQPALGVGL
Set-up: Exp. dG: unit not given here
Procedure: as §1, §2

% at 1 μM hA2B (percentage displacement of specific binding) [%]	Compound
55	CCOC(=O)C1=C(C)Nc2nc3cc(Br)ccc3n2C1c1cccs1 (stereo not shown) [16u]
41	CC1=C(C(=O)OC(C)C)[C@H](c2ccco2)n2c(nc3cc(F)ccc32)N1 [(R)-16b]

Same assay, conditions: displacement of specific [3H]DPCPX binding in human HEK-293 cells, n = 3; read-out: Ki hA2B

Ki [nM]	Compound
8.2 ± 1.1	CC1=C(C(=O)OC(C)C)C(c2ccoc2)n2c(nc3cc(Br)ccc32)N1 (stereo not shown) [16t]
115 ± 3	CC1=C(C(=O)OC(C)C)C(c2cccs2)n2c(nc3cc(Br)ccc32)N1 (stereo not shown) [16v]
61.1 ± 1.8	CC1=C(C(=O)OC(C)C)C(c2ccsc2)n2c(nc3cc(Br)ccc32)N1 (stereo not shown) [16x]
7.6 ± 0.6	CC1=C(C(=O)OC(C)C)C(c2cocn2)n2c(nc3ccc(F)cc32)N1 (stereo not shown) [17b]
14.7 ± 1.1	CCOC(=O)C1=C(C)Nc2nc3cc(F)ccc3n2C1c1cocn1 (stereo not shown) [18a]
6.4 ± 0.7	CC1=C(C(=O)OC(C)C)C(c2cocn2)n2c(nc3cc(Cl)ccc32)N1 (stereo not shown) [18d]

Second part, the compound before the results:

Compound	Ki [nM]
CCOC(=O)C1=C(C)Nc2nc3cc(Br)ccc3n2C1c1ccsc1 (stereo not shown) [16w]	537 ± 8
CCOC(=O)C1=C(C)Nc2nc3ccc(F)cc3n2C1c1cocn1 (stereo not shown) [17a]	44.7 ± 1.4
CCOC(=O)C1=C(C)Nc2nc3ccc(Cl)cc3n2C1c1cocn1 (stereo not shown) [17c]	25.6 ± 1.2
CC1=C(C(=O)OC(C)C)C(c2cocn2)n2c(nc3ccc(Cl)cc32)N1 (stereo not shown) [17d]	102 ± 7
CCOC(=O)C1=C(C)Nc2nc3cc(Cl)ccc3n2C1c1cocn1 (stereo not shown) [18c]	8.6 ± 0.4

Same assay, conditions: experimental binding free energy, Supplementary Table S3; unit not given (errors in kcal/mol)

Exp. dG	Compound
-11.07	CC1=C(C(=O)OC(C)C)C(c2cocn2)n2c(nc3ccc(F)cc32)N1 (stereo not shown) [17b]
-10.68	CCOC(=O)C1=C(C)Nc2nc3cc(F)ccc3n2C1c1cocn1 (stereo not shown) [18a]
-11.17	CC1=C(C(=O)OC(C)C)C(c2cocn2)n2c(nc3cc(Cl)ccc32)N1 (stereo not shown) [18d]

Continued, compound first:

Compound	Exp. dG
CCOC(=O)C1=C(C)Nc2nc3ccc(F)cc3n2C1c1cocn1 (stereo not shown) [17a]	-10.02
CCOC(=O)C1=C(C)Nc2nc3ccc(Cl)cc3n2C1c1cocn1 (stereo not shown) [17c]	-10.35
CC1=C(C(=O)OC(C)C)C(c2cocn2)n2c(nc3ccc(Cl)cc32)N1 (stereo not shown) [17d]	-9.528
CCOC(=O)C1=C(C)Nc2nc3cc(Cl)ccc3n2C1c1cocn1 (stereo not shown) [18c]	-11

Same assay, conditions: read-out: Ki hA2B

Ki [nM]	Compound
< 10	CC1=C(C(=O)OC(C)C)C(c2ccoc2)n2c(nc3cc(Br)ccc32)N1 (stereo not shown) [16t]
< 10	CC1=C(C(=O)OC(C)C)C(c2cocn2)n2c(nc3ccc(F)cc32)N1 (stereo not shown) [17b]
< 10	CCOC(=O)C1=C(C)Nc2nc3cc(Cl)ccc3n2C1c1cocn1 (stereo not shown) [18c]
< 10	CC1=C(C(=O)OC(C)C)C(c2cocn2)n2c(nc3cc(Cl)ccc32)N1 (stereo not shown) [18d]

Same assay, conditions: supplementary CSV, no unit printed (nM in Tables 2-5); read-out: Ki_hA2B

Ki [nM]	Compound
115	CC1=C(C(=O)OC(C)C)C(c2cccs2)n2c(nc3cc(Br)ccc32)N1 (stereo not shown) [16v]
